Experimental data from patent publication US12622859B2, “Organic compounds” (GIVAUDAN SA, priority 2017, dated 2026).

Assays:
[1] = Solubility in water; type: physicochemical
Excerpt: (§1) Consequently, the extract is preferably obtained by extracting the compounds from plant material using an alcohol, and more particularly ethanol. It is particularly preferred if the alcohol is water-free.

[2] = Stability in water; type: physicochemical
Excerpt: as §1

| solubility in water [1] | stability in water [2] | SMILES |
| --- | --- | --- |
| water-soluble | unstable in water | C[C@@H]1O[C@@H](O[C@@H]2[C@H]3O[C@@H](c4ccc(O)c(O)c4)CO[C@@H]3O[C@H](CO)[C@H]2OC(=O)/C=C/c2ccc(O)c(O)c2)[C@H](O)[C@H](O)[C@H]1O [crenatoside] |
| water-soluble | unstable in water | C[C@@H]1O[C@@H](O[C@@H]2[C@@H](O)[C@H](OCCc3ccc(O)c(O)c3)O[C@H](CO)[C@H]2OC(=O)/C=C/c2ccc(O)c(O)c2)[C@H](O)[C@H](O)[C@H]1O [acteoside] |
